Test [1] can be described thus: luciferase reporter signal suppression in cells – H4 neuroglioma cells, luminescence, dose response (AID 1990). It is filed as functional, cell-based.
A short description of test [2]: Luminescence Cell-Based Dose Response HTS to Identify Inhibitors of 5'UTR Stem-Loop Driven Prion Protein mRNA Translation in H4 Neuroglioblastoma Cells. [Related pubchem assays: 1827 (Project Summary), 1813 (Primary HTS)]. It is filed as functional.
The nature of test [3]: alpha-synuclein stem-loop luciferase translation blockers – H4 neuroglioma cells, luminescence, confirmation (AID 1988). It is filed as functional, cell-based.
The target of test [4] is Luciferin 4-monooxygenase (Photinus pyralis, UniProt P08659). As to the kind of experiment: inhibition of purified Photinus pyralis luciferase – biochemical, luminescence, dose response (AID 1891).
Luciferin 4-monooxygenase, sequence (P08659 whole entry): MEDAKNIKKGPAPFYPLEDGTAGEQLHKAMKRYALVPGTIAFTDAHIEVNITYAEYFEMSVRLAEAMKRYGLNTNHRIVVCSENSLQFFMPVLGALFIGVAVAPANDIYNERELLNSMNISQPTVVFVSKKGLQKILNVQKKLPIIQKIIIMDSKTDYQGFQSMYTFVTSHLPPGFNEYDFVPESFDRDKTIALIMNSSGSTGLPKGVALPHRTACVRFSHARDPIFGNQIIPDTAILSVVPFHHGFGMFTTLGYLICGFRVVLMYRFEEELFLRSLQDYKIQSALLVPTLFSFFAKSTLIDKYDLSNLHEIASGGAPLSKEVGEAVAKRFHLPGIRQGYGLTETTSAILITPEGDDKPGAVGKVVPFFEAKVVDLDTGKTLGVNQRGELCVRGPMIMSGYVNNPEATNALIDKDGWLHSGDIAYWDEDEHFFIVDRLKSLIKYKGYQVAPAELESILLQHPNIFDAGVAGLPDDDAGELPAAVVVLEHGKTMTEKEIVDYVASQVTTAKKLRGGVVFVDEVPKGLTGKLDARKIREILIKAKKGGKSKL
Test [5] can be described thus: Luminescence Cell-Based Dose Confirmation HTS to Identify Inhibitors of Platelet Dense Granule Release. [Related pubchem assays: 1663 (Primary HTS), 1678 (Summary of Project)]. In kind it is functional.
Test [6] concerns the target T1, Calpain-2 catalytic subunit (Sus scrofa, UniProt P43367).
T1 sequence (P43367 whole entry): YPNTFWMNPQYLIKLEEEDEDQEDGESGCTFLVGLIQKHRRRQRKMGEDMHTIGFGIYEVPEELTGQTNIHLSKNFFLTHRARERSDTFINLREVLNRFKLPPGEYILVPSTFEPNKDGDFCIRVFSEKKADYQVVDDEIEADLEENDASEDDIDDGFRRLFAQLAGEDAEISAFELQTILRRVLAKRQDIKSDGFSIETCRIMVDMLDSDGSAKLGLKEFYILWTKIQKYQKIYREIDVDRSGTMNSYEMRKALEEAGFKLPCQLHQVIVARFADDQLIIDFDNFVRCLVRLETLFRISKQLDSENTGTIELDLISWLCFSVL
As to the kind of experiment: m-calpain protease blockers, concentration series – biochemical, fluorogenic peptide substrate, dose response (AID 1420). It is filed as functional.

A short description of test [7]: HEK-293T cell viability reduction – luminescence, B-cell screen hits, cytotoxicity control for BCR NF-kB inhibitor project, dose response (AID 489021).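 Note: HEK-293T cells carrying an NF-kB luciferase reporter; cells exposed to compound for about 14 hours before viability readout.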 It is filed as functional, cell-based.
The target of test [8] is T2, High affinity choline transporter 1 (Homo sapiens, UniProt Q9GZV3).
T2 sequence (Q9GZV3 whole entry): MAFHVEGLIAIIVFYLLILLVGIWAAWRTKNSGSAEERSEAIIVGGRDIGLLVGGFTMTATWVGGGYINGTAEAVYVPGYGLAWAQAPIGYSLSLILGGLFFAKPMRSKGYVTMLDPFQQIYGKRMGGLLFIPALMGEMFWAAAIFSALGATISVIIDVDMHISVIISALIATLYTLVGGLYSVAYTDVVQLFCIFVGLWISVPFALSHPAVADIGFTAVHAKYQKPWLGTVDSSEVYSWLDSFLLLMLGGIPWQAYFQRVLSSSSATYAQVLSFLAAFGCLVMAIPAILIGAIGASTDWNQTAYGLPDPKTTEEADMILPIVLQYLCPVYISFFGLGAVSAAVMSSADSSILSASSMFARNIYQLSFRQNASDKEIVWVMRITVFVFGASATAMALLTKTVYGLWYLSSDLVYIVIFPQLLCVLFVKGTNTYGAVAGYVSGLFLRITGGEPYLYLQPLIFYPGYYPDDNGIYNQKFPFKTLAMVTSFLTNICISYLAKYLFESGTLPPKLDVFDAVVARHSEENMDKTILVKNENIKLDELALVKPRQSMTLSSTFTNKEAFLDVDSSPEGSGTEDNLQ
As to the kind of experiment: human choline transporter blockers, potency – cell-based, 5-point CRC, membrane potential dye, dose response (AID 504840). In kind it is functional.

Test [9] relates to Streptococcus sp. 'group A'. As to the kind of experiment: Streptococcus pyogenes SK(-)GAS viability under kanamycin – luminescence, BacTiterGlo, confirmation, counter-screen for streptokinase expression inhibitor project, dose response (AID 1900). In kind it is functional, organism-based.
Test [10] in a line: cells. It is filed as functional, cell-based.
Another test addresses T3, Streptokinase A (Streptococcus pyogenes serotype M1, UniProt P10520).
T3 sequence (P10520 whole entry): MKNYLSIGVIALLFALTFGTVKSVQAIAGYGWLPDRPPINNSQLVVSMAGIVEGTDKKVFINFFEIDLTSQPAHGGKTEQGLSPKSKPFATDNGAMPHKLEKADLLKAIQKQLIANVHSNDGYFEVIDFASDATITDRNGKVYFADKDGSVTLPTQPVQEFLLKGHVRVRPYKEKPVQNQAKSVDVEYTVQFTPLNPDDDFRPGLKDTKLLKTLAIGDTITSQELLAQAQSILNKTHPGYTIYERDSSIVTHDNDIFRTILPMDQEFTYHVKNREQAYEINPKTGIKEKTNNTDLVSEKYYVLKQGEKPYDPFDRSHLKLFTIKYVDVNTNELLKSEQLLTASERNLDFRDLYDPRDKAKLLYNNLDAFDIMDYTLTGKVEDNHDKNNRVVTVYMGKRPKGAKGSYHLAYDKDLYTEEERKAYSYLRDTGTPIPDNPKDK
As to the kind of experiment: viability-normalized secreted streptokinase activity reduction – plasminogen activation absorbance, OD405, dose response (AID 1914).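 Note: secreted streptokinase activity via plasminogen activation per viability signal from cell pellet.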 In kind it is functional, Streptococcus pyogenes M1 GAS.

Test [11] can be described thus: Trypanosoma cruzi growth suppression in host cells – NIH3T3 host cells, beta-gal luminescence, confirmation (AID 2044).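 Note: intracellular parasites grown in NIH/3T3 mouse fibroblasts as host cells; luminescent beta-galactosidase reporter signal from transgenic T. cruzi replicating inside host cells; inhibitors lower the luminescence signal.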 In kind it is functional, cell-based.
Test [12] is described as follows: microbe, parasite or virus in culture. In kind it is functional. The note with it: Mycobacterium tuberculosis.
Test [13] can be described thus: cells. In kind it is functional, cell-based. This is another data set of the same source.
Test [14] in a line: NIH3T3 cell viability loss – ATP luminescence, mouse fibroblasts, counter-screen, dose response (AID 2010).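 Note: cells exposed to compound for about 90 hours before reading.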 In kind it is functional, cell-based.
The next test has as its system Streptococcus. As to the kind of experiment: GAS UMAA2166 growth inhibition – luminescence, BacTiterGlo, counter-screen for streptokinase expression inhibitor project, dose response (AID 1915).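 Note: potency for reduction of bacterial viability or growth.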 It is filed as functional, organism-based.
Test [15] is described as follows: THP-1 cell cytotoxicity, dose response, cytotoxicity control for non-replicating M. tuberculosis project (AID 489025). It is filed as functional.
Test [16] in a line: HepG2 cell cytotoxicity, dose response, cytotoxicity control for non-replicating M. tuberculosis project (AID 489018). In kind it is functional. The settings on record: Mycobacterium tuberculosis.
Test [17] can be described thus: Vero E6 cell cytotoxicity, dose response, cytotoxicity control for non-replicating M. tuberculosis project, secondary assay (AID 492998). The note with it: Vero C1008. It is filed as functional, VeroE6.
Test [18] can be described thus: cells. It is filed as functional.
Test [19] in a line: viability of PTEN-deleted HCT116 cells – cell-based, HCT116 PTEN knockout, dose response (AID 1047).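 Note: HCT116 colon tumor cells with PTEN knocked out; cells exposed to compound for 60 hours before readout; potency for loss of cell viability measured by luminescence.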 In kind it is functional.
Test [20] is described as follows: viability of HCT116 lacking mutant beta-catenin – cell-based, human colon tumor, dose response (AID 1045).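 Note: HCT116 colon tumor cells with beta catenin knocked out; cells exposed to compound for 60 hours.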 It is filed as functional.
The target of test [21] is T4, Microphthalmia-associated transcription factor (Homo sapiens, UniProt O75030).
T4 sequence (O75030 whole entry): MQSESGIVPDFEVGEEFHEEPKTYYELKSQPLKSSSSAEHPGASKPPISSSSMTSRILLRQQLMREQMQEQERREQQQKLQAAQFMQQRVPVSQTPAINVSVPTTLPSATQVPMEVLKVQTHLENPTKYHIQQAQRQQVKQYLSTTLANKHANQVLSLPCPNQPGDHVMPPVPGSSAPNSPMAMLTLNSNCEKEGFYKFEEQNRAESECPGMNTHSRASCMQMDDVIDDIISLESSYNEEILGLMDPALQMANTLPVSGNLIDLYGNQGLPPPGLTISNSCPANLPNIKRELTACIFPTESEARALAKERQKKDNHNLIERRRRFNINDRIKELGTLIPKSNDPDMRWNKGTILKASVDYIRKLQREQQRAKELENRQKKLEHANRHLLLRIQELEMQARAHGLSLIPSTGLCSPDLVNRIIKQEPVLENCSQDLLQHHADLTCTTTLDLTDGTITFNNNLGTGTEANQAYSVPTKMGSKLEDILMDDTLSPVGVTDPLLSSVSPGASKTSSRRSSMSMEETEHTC
As to the kind of experiment: reducers of TRPM1 reporter luminescence, concentration series – cell-based, SK-MEL-5, cherry-picked, set 3, MITF inhibitor project, dose response (AID 493073).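 Note: SK-MEL-5 melanoma cells with luciferase driven by the MITF target TRPM1 promoter.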 It is filed as functional.

The next test relates to INS1. The test can be described thus: INS-1E survival protection against cytokine death – cell-based, luminescence, retest, dose response (AID 449756).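 Note: cell death triggered by IL-1 beta plus TNF-alpha plus IFN-gamma mixture; protective hits raise ATP signal compared with cytokine alone wells.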 The settings on record: Rattus norvegicus. In kind it is functional.

Activity calls are given as the source filed them.

For `O=C(CCCN1C(=O)/C(=C/c2ccccc2Cl)SC1=S)NNC(=O)c1ccc(Cl)cc1Cl`, the concentration for a half-maximal effect (EC50) in test [1] is 0.675 µM (active); in test [2], 7.86 µM (active); in [3], 1.03 µM (active); in [4], > 112 µM (not active); in test [5] it was > 112 µM (not active). The IC50 in test [6] was > 50 µM (not active); in test [7], > 80 µM (inactive).

For `Cc1nn(-c2ccccc2)c(C)c1C(=O)OCC(=O)NC(=O)NC1CCCC1`, the IC50 in test [8] is 14.5 µM (active).

As for `Cc1nnc(-c2ccccc2)c(=O)n1/N=C/c1c(O)ccc2ccccc12`, the 50% effective concentration (EC50) in [1] is > 120 µM (not active); in [9], 2.7 µM (active); in the test “cells [10]” it was 25.7 µM (active); in test [2], 9.49 µM (active); in test [3], > 120 µM (not active); at Streptokinase A, > 150 µM (not active). Moreover, the concentration giving a half-maximal response (EC50) is 1.16 µM (active) in test [11], > 350 µM (not active) in “cells [13]”, 1.97 µM (active) in test [14] and 36.2 µM (active) in the test on Streptococcus. The CC50 was 18.9 µM (active) in test [12], 3.63 µM (active) in test [15], > 20 µM (active) in test [16] and 8.43 µM (active) in [17]. In addition, the IC50 in “cells [18]” was 35.3 µM (active).

For `CCc1cc(CC)c(/C=N/NC(N)=O)c(CC)c1/C=N/NC(N)=O`, the IC50 in test [8] was 11.1 µM (active).

In the case of `COc1ccc(/C(C)=N/Nc2ncc(Cl)cc2Cl)c(O)c1`, the CC50 in [15] is 24.9 µM (active); in test [16], 19.3 µM (active); in test [17] it was > 20 µM (active). Also, the IC50 in “cells [18]” is 2.19 µM (active).

Turning to `Nc1cccn2c(-c3ccc(Cl)cc3)cnc12`, in test [16], the CC50 is 19.1 µM (active).

Regarding `Cc1ccc(NC(S)=NNC(=O)C2CC2c2ccc(C)cc2)cc1` (centres undefined), in test [8], the IC50 is 13.2 µM (active).

Regarding `CN(C)CCCn1c(=O)n(C2CCCCC2)c(=O)c2c3c(sc21)CCCCC3`, the CC50 in [15] was 23.8 µM (active). Moreover, the IC50 is 24.9 µM (active) in the test “cells [18]” and 8.71 µM (active) in test [8].

As for `O=S(=O)(c1ccc(N2CCCC2)nc1)N1CCCC1`, in test [8], the IC50 was 8.93 µM (active).

With `Cn1c(SCC(=O)N/N=C/c2ccc([N+](=O)[O-])s2)nnc1-c1ccccc1`, the EC50 in test [11] was 0.634 µM (active); in test [19], 4.9 µM (active); in test [14] it was 19.8 µM (active); in test [20] it was 4.99 µM (active). The AC50 in [21] was 4.28 µM (active); in the test on INS1, 3.5 µM (active).

Regarding `COc1cc2nc(SCC(=O)NCc3ccco3)n(Cc3ccc(Cl)cc3)c(=O)c2cc1OC`, the AC50 in test [21] was 13.2 µM (active).

Consider `COC(=O)/C(=C/c1c[nH]c2ccccc12)[N+](=O)[O-]`, for which the IC50 in test [8] was 0.724 µM (active).

As for `Cc1nnsc1C(=O)N/N=C/c1ccc2ccccc2c1O`, the EC50 in the test “cells [10]” was 6.43 µM (active); in the test “cells [13]”, 35.8 µM (active). The CC50 is < 0.078 µM (active) in test [15], 1.51 µM (active) in [16] and 0.09 µM (active) in [17]. The IC50 in the test “cells [18]” was > 50 µM (active). Also, in the test on INS1, the AC50 is 0.321 µM (active).

Consider `CCN1C(=O)Nc2cccc3cccc1c23`, for which the half-maximal effective concentration (EC50) in test [4] is > 112 µM (not active); in test [5] it was 7.12 µM (active). In addition, in test [7], the IC50 is > 80 µM (inactive).

For the molecule `COc1ccc(C(=O)NC(C)c2nccs2)cc1OC1CCN(C(C)C)CC1` (centres undefined), the IC50 in test [8] was 12.9 µM (active).

Consider `O=C(NC(=S)NCc1ccccc1)c1ccccc1`, for which the AC50 in test [21] is 22.1 µM (active).

For the origin of these results see ChEMBL document CHEMBL1201862, “PubChem BioAssay data set” (2004).
